Reference: PMC11397024, “Strategic Fluorination to Achieve a Potent, Selective, Metabolically Stable, and Orally Bioavailable Inhibitor of CSNK2” (Molecules, 2024)

Legend:
Type in all cases: cell-based
CLK4 = biological target: T1, CLK4 (Homo sapiens, UniProt Q9HAZ1); test: NanoBRET dose-response CLK4; settings: highest concentration tested 30 μM
T1 construct: expressed in transfected cells; host or cells: HEK293

PLK4 = biological target: T2, PLK4 (Homo sapiens, UniProt O00444); test: NanoBRET K192; settings: HEK293
T2 construct: purchased Promega (NanoBRET Target Engagement K192 Kinase Selectivity System)
Outline: (§1)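 HEK293 cells were transfected overnight with NanoLuc–kinase fusion vectors, then treated for 2 h at 37 °C with compound (added as 100 μM working solution) plus K10 tracer. BRET was read at 450/610 nm after substrate and extracellular inhibitor, and fractional occupancy was calculated against no-compound controls.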

DYRK1A = biological target: T3, DYRK1A (Homo sapiens, UniProt Q13627); test: NanoBRET K192
T3 construct: purchased Promega (NanoBRET Target Engagement K192 Kinase Selectivity System)
Outline: as §1

MAP3K3 = biological target: T4, MAP3K3 (Homo sapiens, UniProt Q99759); test: NanoBRET K192; settings: HEK293
T4 construct: purchased Promega (NanoBRET Target Engagement K192 Kinase Selectivity System)
Outline: as §1

ERN2 = biological target: T5, ERN2 (Homo sapiens, UniProt Q76MJ5); test: NanoBRET K192; settings: HEK293
T5 construct: purchased Promega (NanoBRET Target Engagement K192 Kinase Selectivity System)
Outline: as §1

LATS1 = biological target: T6, LATS1 (Homo sapiens, UniProt O95835); test: NanoBRET K192; settings: HEK293
T6 construct: purchased Promega (NanoBRET Target Engagement K192 Kinase Selectivity System)
Outline: as §1

PLK3 = biological target: T7, PLK3 (Homo sapiens, UniProt Q9H4B4); test: NanoBRET K192; settings: HEK293
T7 construct: purchased Promega (NanoBRET Target Engagement K192 Kinase Selectivity System)
Outline: as §1

GAK = biological target: T8, GAK (Homo sapiens, UniProt O14976); test: NanoBRET K192; settings: HEK293
T8 construct: purchased Promega (NanoBRET Target Engagement K192 Kinase Selectivity System)
Outline: as §1

SNRK = biological target: T9, SNRK (Homo sapiens, UniProt Q9NRH2); test: NanoBRET K192; settings: HEK293
T9 construct: host or cells: HEK293
Outline: as §1

EPHA1 = biological target: T10, EPHA1 (Homo sapiens, UniProt P21709); test: NanoBRET K192; settings: HEK293
T10 construct: purchased Promega (NanoBRET Target Engagement K192 Kinase Selectivity System)
Outline: as §1

CDK5 + CDK5R1 = biological target: T11, CDK5 + CDK5R1 (Homo sapiens, UniProt Q00535); test: NanoBRET K192; settings: HEK293
T11 construct: purchased Promega (NanoBRET Target Engagement K192 Kinase Selectivity System)
Outline: as §1

BRAF(V600E) = biological target: T12, BRAF(V600E) (Homo sapiens, UniProt P15056, V600E); test: NanoBRET K192; settings: HEK293
T12 construct: purchased Promega (NanoBRET Target Engagement K192 Kinase Selectivity System)
Outline: as §1

DYRK1B = biological target: T13, DYRK1B (Homo sapiens, UniProt Q9Y463); test: NanoBRET K192; settings: HEK293
T13 construct: purchased Promega (NanoBRET Target Engagement K192 Kinase Selectivity System)
Outline: as §1

CAMK1 = biological target: T14, CAMK1 (Homo sapiens, UniProt Q14012); test: NanoBRET K192; settings: HEK293
T14 construct: purchased Promega (NanoBRET Target Engagement K192 Kinase Selectivity System)
Outline: as §1

RIPK1 = biological target: T15, RIPK1 (Homo sapiens, UniProt Q13546); test: NanoBRET K192; settings: HEK293
T15 construct: purchased Promega (NanoBRET Target Engagement K192 Kinase Selectivity System)
Outline: as §1

PLK2 = biological target: T16, PLK2 (Homo sapiens, UniProt Q9NYY3); test: NanoBRET K192; settings: HEK293
T16 construct: purchased Promega (NanoBRET Target Engagement K192 Kinase Selectivity System)
Outline: as §1

WEE2 = biological target: T17, WEE2 (Homo sapiens, UniProt P0C1S8); test: NanoBRET K192; settings: HEK293
T17 construct: purchased Promega (NanoBRET Target Engagement K192 Kinase Selectivity System)
Outline: as §1

RPS6KA1 = biological target: T18, RPS6KA1 (Homo sapiens, UniProt Q15418); test: NanoBRET K192; settings: HEK293
T18 construct: purchased Promega (NanoBRET Target Engagement K192 Kinase Selectivity System)
Outline: as §1

FER = biological target: T19, FER (Homo sapiens, UniProt P16591); test: NanoBRET K192; settings: HEK293
T19 construct: purchased Promega (NanoBRET Target Engagement K192 Kinase Selectivity System)
Outline: as §1

PRKAA1 = biological target: T20, PRKAA1 (Homo sapiens, UniProt Q13131); test: NanoBRET K192; settings: HEK293
T20 construct: purchased Promega (NanoBRET Target Engagement K192 Kinase Selectivity System)
Outline: as §1

MAP3K19 = biological target: T21, MAP3K19 (Homo sapiens, UniProt Q56UN5); test: NanoBRET K192; settings: HEK293
T21 construct: purchased Promega (NanoBRET Target Engagement K192 Kinase Selectivity System)
Outline: as §1

NEK11 = biological target: T22, NEK11 (Homo sapiens, UniProt Q8NG66); test: NanoBRET K192; settings: HEK293
T22 construct: purchased Promega (NanoBRET Target Engagement K192 Kinase Selectivity System)
Outline: as §1

TYRO3 = biological target: T23, TYRO3 (Homo sapiens, UniProt Q06418); test: NanoBRET K192; settings: HEK293
T23 construct: purchased Promega (NanoBRET Target Engagement K192 Kinase Selectivity System)
Outline: as §1

BRSK1 = biological target: T24, BRSK1 (Homo sapiens, UniProt Q8TDC3); test: NanoBRET K192; settings: HEK293
T24 construct: purchased Promega (NanoBRET Target Engagement K192 Kinase Selectivity System)
Outline: as §1

ICK = biological target: T25, ICK (Homo sapiens, UniProt Q9UPZ9); test: NanoBRET K192; settings: HEK293
T25 construct: host or cells: HEK293
Outline: as §1

BMP2K = biological target: T26, BMP2K (Homo sapiens, UniProt Q9NSY1); test: NanoBRET K192; settings: HEK293
T26 construct: purchased Promega (NanoBRET Target Engagement K192 Kinase Selectivity System)
Outline: as §1

T10 sequence (P21709 26-976): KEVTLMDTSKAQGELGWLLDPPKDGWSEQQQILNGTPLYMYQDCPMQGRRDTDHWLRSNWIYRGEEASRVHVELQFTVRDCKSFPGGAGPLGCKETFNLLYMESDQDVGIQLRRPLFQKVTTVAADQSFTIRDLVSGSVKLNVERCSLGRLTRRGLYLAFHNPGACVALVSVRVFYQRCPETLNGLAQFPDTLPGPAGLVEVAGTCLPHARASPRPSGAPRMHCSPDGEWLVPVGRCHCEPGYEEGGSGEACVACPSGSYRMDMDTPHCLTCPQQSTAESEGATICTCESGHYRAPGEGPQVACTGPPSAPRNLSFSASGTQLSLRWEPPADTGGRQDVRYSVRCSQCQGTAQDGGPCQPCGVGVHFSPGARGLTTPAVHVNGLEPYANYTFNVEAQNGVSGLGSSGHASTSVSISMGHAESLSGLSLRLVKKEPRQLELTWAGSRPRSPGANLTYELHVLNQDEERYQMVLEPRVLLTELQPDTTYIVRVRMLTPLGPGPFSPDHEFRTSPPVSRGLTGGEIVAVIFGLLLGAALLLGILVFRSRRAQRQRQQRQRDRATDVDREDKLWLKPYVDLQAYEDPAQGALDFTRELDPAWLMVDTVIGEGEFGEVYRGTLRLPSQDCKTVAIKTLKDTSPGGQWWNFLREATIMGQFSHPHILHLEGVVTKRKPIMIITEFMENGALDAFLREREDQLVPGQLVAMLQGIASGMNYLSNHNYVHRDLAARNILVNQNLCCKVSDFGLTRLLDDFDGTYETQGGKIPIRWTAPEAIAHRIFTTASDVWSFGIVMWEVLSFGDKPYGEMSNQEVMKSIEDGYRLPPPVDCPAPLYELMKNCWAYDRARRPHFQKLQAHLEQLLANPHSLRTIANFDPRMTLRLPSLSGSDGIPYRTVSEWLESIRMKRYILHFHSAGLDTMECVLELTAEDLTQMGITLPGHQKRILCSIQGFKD
T16 sequence (Q9NYY3 whole entry): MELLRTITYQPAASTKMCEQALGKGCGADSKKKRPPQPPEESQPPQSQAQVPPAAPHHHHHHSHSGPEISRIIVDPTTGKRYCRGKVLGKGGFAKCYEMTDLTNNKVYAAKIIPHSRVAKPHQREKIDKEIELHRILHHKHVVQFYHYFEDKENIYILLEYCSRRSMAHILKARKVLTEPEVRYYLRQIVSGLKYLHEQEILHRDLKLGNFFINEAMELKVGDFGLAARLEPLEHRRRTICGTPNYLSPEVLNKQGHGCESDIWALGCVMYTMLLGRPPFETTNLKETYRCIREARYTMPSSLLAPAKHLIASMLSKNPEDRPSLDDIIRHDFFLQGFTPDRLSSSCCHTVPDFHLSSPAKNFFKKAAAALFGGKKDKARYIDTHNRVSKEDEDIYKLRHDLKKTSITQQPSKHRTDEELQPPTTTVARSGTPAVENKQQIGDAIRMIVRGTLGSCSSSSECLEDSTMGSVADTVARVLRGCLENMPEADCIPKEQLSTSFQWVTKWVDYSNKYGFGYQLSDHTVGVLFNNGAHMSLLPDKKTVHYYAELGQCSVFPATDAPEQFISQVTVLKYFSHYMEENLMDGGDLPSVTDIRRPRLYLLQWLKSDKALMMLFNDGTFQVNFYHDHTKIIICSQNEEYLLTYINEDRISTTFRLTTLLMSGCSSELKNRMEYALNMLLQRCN
T7 sequence (Q9H4B4 whole entry): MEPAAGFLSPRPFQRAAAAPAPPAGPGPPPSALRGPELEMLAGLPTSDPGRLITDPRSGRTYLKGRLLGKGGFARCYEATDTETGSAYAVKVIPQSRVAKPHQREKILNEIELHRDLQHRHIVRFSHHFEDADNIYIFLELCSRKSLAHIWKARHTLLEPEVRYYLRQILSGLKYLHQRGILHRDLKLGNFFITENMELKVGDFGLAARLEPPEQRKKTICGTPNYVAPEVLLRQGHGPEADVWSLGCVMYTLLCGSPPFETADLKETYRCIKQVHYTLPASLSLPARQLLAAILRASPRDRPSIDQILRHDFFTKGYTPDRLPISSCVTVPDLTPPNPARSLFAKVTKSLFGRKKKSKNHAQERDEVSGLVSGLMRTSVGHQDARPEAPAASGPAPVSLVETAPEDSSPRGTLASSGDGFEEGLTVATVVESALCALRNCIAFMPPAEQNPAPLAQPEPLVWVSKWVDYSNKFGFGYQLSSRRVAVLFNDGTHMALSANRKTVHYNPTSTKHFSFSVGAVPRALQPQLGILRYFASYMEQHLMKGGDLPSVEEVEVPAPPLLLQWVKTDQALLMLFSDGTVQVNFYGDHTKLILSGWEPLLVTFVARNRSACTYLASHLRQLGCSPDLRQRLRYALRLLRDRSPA
T26 sequence (Q9NSY1 whole entry): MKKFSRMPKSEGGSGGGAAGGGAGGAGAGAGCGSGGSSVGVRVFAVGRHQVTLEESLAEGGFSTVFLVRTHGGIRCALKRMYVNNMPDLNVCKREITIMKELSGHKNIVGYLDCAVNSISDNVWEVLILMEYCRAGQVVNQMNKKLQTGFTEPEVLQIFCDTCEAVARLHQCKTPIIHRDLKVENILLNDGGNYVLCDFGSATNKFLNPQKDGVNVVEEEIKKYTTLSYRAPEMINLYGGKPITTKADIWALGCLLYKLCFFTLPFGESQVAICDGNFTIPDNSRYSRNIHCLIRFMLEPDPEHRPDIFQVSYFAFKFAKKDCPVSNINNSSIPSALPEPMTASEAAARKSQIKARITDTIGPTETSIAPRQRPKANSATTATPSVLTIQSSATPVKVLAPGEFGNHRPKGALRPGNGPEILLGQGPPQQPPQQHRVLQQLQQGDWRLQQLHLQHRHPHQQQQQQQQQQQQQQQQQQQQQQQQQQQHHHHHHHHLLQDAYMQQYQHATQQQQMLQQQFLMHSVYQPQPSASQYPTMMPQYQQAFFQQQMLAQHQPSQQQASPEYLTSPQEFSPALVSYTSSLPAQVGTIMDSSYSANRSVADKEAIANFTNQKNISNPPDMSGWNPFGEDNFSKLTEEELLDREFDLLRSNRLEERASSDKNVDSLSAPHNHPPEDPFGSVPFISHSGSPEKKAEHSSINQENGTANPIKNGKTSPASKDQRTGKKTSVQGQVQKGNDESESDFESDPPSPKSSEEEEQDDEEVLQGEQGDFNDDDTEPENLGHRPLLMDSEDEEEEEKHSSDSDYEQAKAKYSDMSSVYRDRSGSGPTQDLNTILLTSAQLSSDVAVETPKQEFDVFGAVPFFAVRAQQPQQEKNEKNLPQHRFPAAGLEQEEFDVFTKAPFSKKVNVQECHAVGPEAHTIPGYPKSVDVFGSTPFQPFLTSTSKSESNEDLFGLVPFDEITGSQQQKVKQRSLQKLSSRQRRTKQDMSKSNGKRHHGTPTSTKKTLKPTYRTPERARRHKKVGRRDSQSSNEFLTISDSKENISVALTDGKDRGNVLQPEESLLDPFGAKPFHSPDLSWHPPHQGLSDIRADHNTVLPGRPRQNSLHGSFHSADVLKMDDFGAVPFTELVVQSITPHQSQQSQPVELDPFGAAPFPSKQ
T1 sequence (Q9HAZ1 whole entry): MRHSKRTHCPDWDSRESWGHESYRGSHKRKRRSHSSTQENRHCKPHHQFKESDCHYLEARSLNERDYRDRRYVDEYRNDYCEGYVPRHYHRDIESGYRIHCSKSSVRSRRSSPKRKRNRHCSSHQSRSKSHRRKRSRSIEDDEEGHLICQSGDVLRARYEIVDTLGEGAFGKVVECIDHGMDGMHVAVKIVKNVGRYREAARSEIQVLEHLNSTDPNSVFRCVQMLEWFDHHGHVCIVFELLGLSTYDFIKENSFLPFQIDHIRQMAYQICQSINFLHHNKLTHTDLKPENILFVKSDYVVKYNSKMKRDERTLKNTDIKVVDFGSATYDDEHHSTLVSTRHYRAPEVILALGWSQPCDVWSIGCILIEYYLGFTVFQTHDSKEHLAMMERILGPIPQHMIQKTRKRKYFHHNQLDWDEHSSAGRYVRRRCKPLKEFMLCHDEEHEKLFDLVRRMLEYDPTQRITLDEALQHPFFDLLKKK
T15 sequence (Q13546 whole entry): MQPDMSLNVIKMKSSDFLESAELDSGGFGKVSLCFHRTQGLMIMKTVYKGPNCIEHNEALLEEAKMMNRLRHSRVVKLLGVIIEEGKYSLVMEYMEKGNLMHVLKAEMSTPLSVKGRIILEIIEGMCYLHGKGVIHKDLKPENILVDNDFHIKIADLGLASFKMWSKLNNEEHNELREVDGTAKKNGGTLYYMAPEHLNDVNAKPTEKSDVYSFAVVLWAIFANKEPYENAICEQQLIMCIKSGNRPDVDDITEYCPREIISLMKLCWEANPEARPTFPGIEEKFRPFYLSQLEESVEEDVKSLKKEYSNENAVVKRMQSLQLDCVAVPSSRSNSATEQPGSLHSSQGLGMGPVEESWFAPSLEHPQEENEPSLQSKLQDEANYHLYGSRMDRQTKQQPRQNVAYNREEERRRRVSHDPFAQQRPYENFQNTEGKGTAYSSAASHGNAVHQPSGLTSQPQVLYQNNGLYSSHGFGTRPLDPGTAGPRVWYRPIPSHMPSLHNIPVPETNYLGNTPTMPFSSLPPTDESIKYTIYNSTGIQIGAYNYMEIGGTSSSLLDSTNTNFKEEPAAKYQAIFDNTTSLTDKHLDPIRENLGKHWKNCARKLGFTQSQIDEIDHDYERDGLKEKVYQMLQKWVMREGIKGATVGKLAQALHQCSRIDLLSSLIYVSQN
T14 sequence (Q14012 whole entry): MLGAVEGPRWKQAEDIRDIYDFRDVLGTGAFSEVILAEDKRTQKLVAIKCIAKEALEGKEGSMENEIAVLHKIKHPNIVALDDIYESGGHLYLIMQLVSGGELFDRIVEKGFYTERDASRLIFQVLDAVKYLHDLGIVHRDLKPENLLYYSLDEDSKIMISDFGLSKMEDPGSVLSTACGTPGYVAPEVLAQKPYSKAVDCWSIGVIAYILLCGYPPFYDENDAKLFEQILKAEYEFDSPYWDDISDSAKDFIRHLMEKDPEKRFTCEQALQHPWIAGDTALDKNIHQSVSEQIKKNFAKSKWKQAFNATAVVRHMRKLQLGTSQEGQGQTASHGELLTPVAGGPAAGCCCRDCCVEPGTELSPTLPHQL

In the case of `CCC(=O)Nc1cc(Nc2cc(NC3CC3)n3ncc(C#N)c3n2)c(F)cc1N1CCC[C@H](NC)C1` [Compound 2, (S)-N-(5-((3-cyano-7-(cyclopropylamino)pyrazolo[1,5-a]pyrimidin-5-yl)amino)-4-fluoro-2-(3-(methylamino)piperidin-1-yl)phenyl)propionamide], the IC50 (CLK4) is reported as over 30 µM, the receptor occupancy at 10 µM (PLK4) is reported as 3.8% and the “% occupancy at 10 μM” value (DYRK1A; DYRK1A, HEK293) is reported as 71%. It also gave a receptor occupancy at 10 µM (DYRK1A; HEK293, DYRK1A) of 71.2%, a receptor occupancy at 10 µM (MAP3K3) of 10.1% and a receptor occupancy at 10 µM (ERN2) of 9.2%. The receptor occupancy at 10 µM (LATS1) was -0.4%, the receptor occupancy at 10 µM (PLK3) was 15.5% and the receptor occupancy at 10 µM (GAK) was 3.3%. For the same compound, the receptor occupancy at 10 µM (SNRK) was -2%, the receptor occupancy at 10 µM (EPHA1) was 7.7% and the receptor occupancy at 10 µM (CDK5 + CDK5R1) was 10.8%. It also gave a receptor occupancy at 10 µM (BRAF(V600E)) of 5.3%, a receptor occupancy at 10 µM (DYRK1B) of 38.3% and a receptor occupancy at 10 µM (CAMK1) of 26.2%. The receptor occupancy at 10 µM (RIPK1) was 9.1%, the receptor occupancy at 10 µM (PLK2) was 29.6% and the receptor occupancy at 10 µM (WEE2) was 4.5%. The receptor occupancy at 10 µM (RPS6KA1) was 7.1%, the receptor occupancy at 10 µM (FER) was 3.1% and the receptor occupancy at 10 µM (PRKAA1) was 3.8%. For the same compound, the receptor occupancy at 10 µM (MAP3K19) was 2.4%, the receptor occupancy at 10 µM (NEK11) was 19.1% and the receptor occupancy at 10 µM (TYRO3) was 3.9%. It also gave a receptor occupancy at 10 µM (BRSK1) of 17.7%, a receptor occupancy at 10 µM (ICK) of -6.1% and a receptor occupancy at 10 µM (BMP2K) of 7.6%.
